Source: PubChem BioAssay (NCI)
Where “and” joins values, the source holds several entries; their conditions need not be identical. Identical values can stand only once.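 Compound exposure: 48 hours, 5 concentrations, 96-well plates. At the GI50, growth is halved. TGI marks complete inhibition of growth.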

Columns and labels:
Experiment in all cases: NCI tumour cell line growth inhibition, 48 h
A549 NSCLC = tested on: A549 NSCLC
SNB-19 CNS = tested on: SNB-19 CNS
SN12C renal = tested on: SN12C renal
OVCAR-5 ovarian = tested on: OVCAR-5 ovarian
U251 CNS = tested on: U251 CNS
SW-620 colon = tested on: SW-620 colon
SK-MEL-28 melanoma = tested on: SK-MEL-28 melanoma
SNB-75 CNS = tested on: SNB-75 CNS
HT29 colon = tested on: HT29 colon
RPMI-8226 leukemia = tested on: RPMI-8226 leukemia

Row | SMILES | GI50 (A549 NSCLC) | TGI (A549 NSCLC) | GI50 (SNB-19 CNS) | TGI (SNB-19 CNS) | GI50 (SN12C renal) | TGI (SN12C renal) | GI50 (OVCAR-5 ovarian) | TGI (OVCAR-5 ovarian) | GI50 (U251 CNS) | TGI (U251 CNS) | GI50 (SW-620 colon) | TGI (SW-620 colon) | GI50 (SK-MEL-28 melanoma) | TGI (SK-MEL-28 melanoma) | GI50 (SNB-75 CNS) | TGI (SNB-75 CNS) | GI50 (HT29 colon) | TGI (HT29 colon) | GI50 (RPMI-8226 leukemia) | TGI (RPMI-8226 leukemia)
1 | O=C([CH-]C(=O)c1ccccc1)c1ccccc1.[CH3-].[CH3-].[CH3-].[Sn+4] | 17.1 µM | > 100 µM | 14.8 µM | 73 µM | 17.3 µM | > 100 µM | 37.2 µM | 86.5 µM | 6.87 µM | 52 µM | 12.3 µM | 26 µM | 15.6 µM | 47.1 µM | 19.4 µM | > 100 µM | 19.2 µM | 60.3 µM | 4.99 µM | 26.2 µM
2 | NC1=NCC(c2ccccn2)C1c1ccc(F)cc1 (stereo not given) |  | > 100 µM |  | > 100 µM |  | > 100 µM |  | > 100 µM |  | > 100 µM |  | > 100 µM |  | > 100 µM |  | > 100 µM |  | > 100 µM |  | > 100 µM
3 | NCCn1cnc2nc(NC(=O)c3ccccc3)[nH]c(=O)c21 |  | > 100 µM |  | > 100 µM |  | > 100 µM |  | > 100 µM |  | > 100 µM |  | > 100 µM |  | > 100 µM |  | > 100 µM |  | > 100 µM |  | > 100 µM
4 | COc1cc(/C=C2\NC(=S)C3Cc4c(OC)c(C)c(OC)c(OC)c4C2N3C)c(OC)c(C)c1OC (stereo not given) |  | > 100 µM |  | > 100 µM |  | > 100 µM |  | > 100 µM |  | > 100 µM |  | > 100 µM |  | > 100 µM |  | > 100 µM |  | > 100 µM |  | > 100 µM
5 | COc1ccc(C2CC(c3cccc(OC)c3)=NN2C(=O)c2cc(OC)c(OC)c(OC)c2)cc1 (stereo not given) | 2.25 µM | > 100 µM | 3.16 µM | > 100 µM | 5.03 µM | > 100 µM | > 21.2 µM | > 100 µM | 3.04 µM | > 100 µM | 0.881 µM | > 100 µM | 12.5 µM | > 100 µM | 0.624 µM | > 100 µM | 0.507 µM | > 100 µM | 1.05 µM | 4.35 µM
6 | Cn1ccc2c3c(=O)cc[nH]c3ccc21 | > 100 µM | > 100 µM | > 100 µM | > 100 µM | > 100 µM | > 100 µM | > 100 µM | > 100 µM | > 100 µM | > 100 µM | > 100 µM | > 100 µM | 12.7 µM | > 100 µM | > 100 µM | > 100 µM | > 100 µM | > 100 µM | > 100 µM | > 100 µM
7 | CC1=C/C(O)CC(=O)Cc2nc(co2)C(=O)N2CCC=C2C(=O)OC(C(C)C)C(C)/C=C\C(=O)NC/C=C\1 (stereo not given) | 25.1 µM | > 100 µM | 18.1 µM | 40.3 µM and > 100 µM | 25.9 µM | > 100 µM and 29.2 µM | 31.6 µM | 71.8 µM and 75.6 µM | 24.8 µM | > 100 µM | 10.5 µM | 35 µM and 37.7 µM |  | 44.6 µM and 46.3 µM | 21.4 µM | > 100 µM | 13.2 µM | 30.7 µM and 31.8 µM | 7.98 µM | > 100 µM and 43.4 µM
8 | Oc1c(Cl)cc(CN(Cc2cc(Cl)c(O)c(Cl)c2)C2CCCCC2)cc1Cl |  | > 100 µM |  | > 100 µM |  | > 100 µM |  | > 100 µM |  | > 100 µM |  | > 100 µM |  | > 100 µM |  | > 100 µM |  | > 100 µM |  | > 100 µM
9 | COc1ccc(C2SCC(=O)N2NC(=O)C(O)c2ccccc2)cc1 (stereo not given) | > 100 µM | > 100 µM | > 100 µM | > 100 µM | > 100 µM | > 100 µM | > 100 µM | > 100 µM | > 100 µM | > 100 µM | > 100 µM | > 100 µM | > 100 µM | > 100 µM | 80.9 µM | > 100 µM | > 100 µM | > 100 µM | 61.3 µM | > 100 µM
10 | OCc1ncc(-c2ccccc2)s1 | > 100 µM | > 100 µM | > 100 µM | > 100 µM | > 100 µM | > 100 µM | > 100 µM | > 100 µM | > 100 µM | > 100 µM | > 100 µM | > 100 µM | > 100 µM | > 100 µM | > 100 µM | > 100 µM | > 100 µM | > 100 µM | > 100 µM | > 100 µM
11 | Cc1[nH]c(=O)nc(N/N=C/c2ccc(Cl)cc2)c1C(=O)Nc1ccc(Cl)cc1 |  | > 63.1 µM |  | > 15.8 µM |  | > 100 µM |  | > 100 µM |  | 23.5 µM |  | > 89.3 µM |  | > 86.1 µM |  | 14.6 µM |  | > 100 µM |  | > 80.2 µM
12 | CN(C)CCC(/C=C/c1ccccc1)=N\Nc1ccc(Cl)cc1 |  | 7.34 µM |  | 27.5 µM |  | 7.03 µM |  | 2.89 µM |  | 5.51 µM |  | 14.7 µM |  | 27.2 µM |  | 15.6 µM |  | 13.9 µM |  | 4.69 µM
13 | O=C(O)c1nnsc1-c1csnn1 |  | > 100 µM |  | > 100 µM |  | > 100 µM |  | > 100 µM |  | > 100 µM |  | > 100 µM |  | > 100 µM |  | > 100 µM |  | > 100 µM |  | > 100 µM
14 | Clc1ccc(N/N=C(\c2ccccc2)c2ccccn2)nc1 |  | > 100 µM and 15.9 µM | 0.466 µM | > 100 µM | 0.251 µM | > 49.2 µM and 33.1 µM | 0.234 µM | > 100 µM | 0.344 µM | > 68 µM | 0.0958 µM | > 65.3 µM | 0.335 µM | > 100 µM | 0.614 µM |  | 0.0364 µM | > 37.2 µM and 10.8 µM | 0.128 µM | > 52.6 µM
15 | N=C1N=C(N)S/C1=C\c1ccc2ncccc2c1 | > 25 µM | > 25 µM | > 25 µM | > 25 µM | > 25 µM | > 25 µM | > 25 µM | > 25 µM | > 25 µM | > 25 µM | > 25 µM | > 25 µM | > 25 µM | > 25 µM | > 16.3 µM | > 25 µM | > 25 µM | > 25 µM | > 25 µM | > 25 µM
16 | CN(N=O)C(=O)Nc1ccc(C(=O)O)cc1 |  | > 100 µM |  | > 100 µM |  | > 100 µM |  | > 100 µM |  | > 100 µM |  | > 100 µM |  | > 100 µM |  | > 100 µM |  | > 100 µM |  | > 100 µM
17 | COC1C(O)CC(OC2CC(OC3CC(O[C@@H]4C(=O)c5c(cc6cc(OC7CC(OC8CC(O)C(O)C(C)O8)C(O)C(C)O7)c(C)c(O)c6c5O)C[C@H]4[C@H](OC)C(=O)[C@@H](O)[C@@H](C)O)OC(C)C3O)OC(C)C2O)OC1C (stereo not given in full) |  | > 100 µM |  | > 11.1 µM |  | > 60.5 µM |  | 0.564 µM |  | > 9.45 µM |  | > 100 µM |  | 0.0224 µM |  | 0.447 µM |  | > 56 µM |  | 0.383 µM
18 | O=C(Nc1cc(C(F)(F)F)cc(C(F)(F)F)c1)Nc1ccc(OCc2nnc(-c3ccc(Cl)cc3)o2)c(F)c1 | 1.97 µM | 9.44 µM | 3.1 µM | 25.1 µM | 2.61 µM | 15.7 µM | 2.76 µM | 13.7 µM | 1.49 µM | 3.24 µM | 2.66 µM | 12.3 µM | 3.3 µM | 15.1 µM | 1.32 µM | 5.37 µM | 2.7 µM | 10.3 µM | 1.02 µM | 5.3 µM
19 | CCP(C)(C)=O |  | > 100 µM |  | > 100 µM |  | > 100 µM |  | > 100 µM |  | > 100 µM |  | > 100 µM |  | > 100 µM |  | > 100 µM |  | > 100 µM |  | > 100 µM
20 | COc1cc2oc(-c3cccc(C(=O)Nc4ccc(C)cc4)c3)cc(=O)c2c(OC)c1OC | 3.86 µM | > 100 µM | 6.49 µM | > 100 µM | 1.91 µM | > 100 µM | 2.17 µM | > 100 µM | 3.26 µM | > 100 µM | 4.73 µM | > 100 µM | 1.67 µM | 4.11 µM | 1.16 µM | 5.38 µM | 2.55 µM | > 100 µM | 0.374 µM | 3.54 µM
21 | O=C1c2ccccc2C(=O)c2sc(Nc3ccc(Cl)cc3)nc21 |  | 24.6 µM |  | 9.71 µM |  | 3.56 µM |  | 7.37 µM |  | 3.55 µM |  | 3.31 µM |  | 3.36 µM |  | 12.7 µM |  | 15.5 µM |  | 4.73 µM
22 | COc1ccc2c(c1)C(=O)c1c-2n(CCCN=[N+]=[N-])c(=O)c2cc(N)ccc12 | > 100 µM | > 100 µM | > 100 µM | > 100 µM | > 100 µM | > 100 µM | > 100 µM | > 100 µM | > 100 µM | > 100 µM | > 100 µM | > 100 µM |  | > 100 µM |  | > 100 µM | 47.6 µM | > 100 µM | > 100 µM | > 100 µM
23 | C/C(=C1/N=C(c2ccccc2)OC1=O)c1ccccc1 |  | > 100 µM |  | > 100 µM |  | > 100 µM |  | > 100 µM |  | > 100 µM |  | > 100 µM |  | > 100 µM |  | > 100 µM |  | > 100 µM |  | 68.4 µM
